For orientation: EC50 means the midpoint of the concentration-response curve. A high value points to a less potent agent.

Data set [1] is described as follows: Toxic concentration against uninfected cells and their ability to generate XTT formazan. The class given is ADME, cell-based. To be noted: read-out: TC50 (the source's name). A general note: Formazan colour is commonly taken as a measure of viable cells.
Data set [2] in a line: Therapeutic index. To be noted: read-out: Therapeutic index.
For data set [3], the system named is Human alphaherpesvirus 1. The data set is described as follows: Inhibitory concentration against herpes simplex virus (HSV-1-lacZ) replication.

Molecules are shown by their SMILES.

Regarding `COc1ccc2sc3c(c2c1)N(Cc1ccccc1Cl)CCNC3=O`, in data set [1], the CC50 amounted to 12 µM. Besides, the selectivity ratio in data set [2] is 1500. In data set [3], this compound yielded an EC50 of 0.008 µM.

Take `COc1ccc2sc3c(c2c1)N(Cc1ccccc1C)CCNC3=O`: the CC50 in data set [1] stood at 25 µM. In data set [2], the selectivity ratio came out at 1200. The midpoint of the response in data set [3], the EC50, lay at 0.021 µM.

As to `COc1cccc(CN2C[C@H](Cc3ccccc3)NC(=O)c3sc4ccc(OC)cc4c32)c1`, in data set [1], the CC50 was found to be 6 µM. For the same compound, in data set [2], the selectivity ratio came out at 67. In data set [3], this compound showed an EC50 of 0.09 µM.

For the compound `COc1cccc(CN2CCNC(=O)c3sc4ccc(OC)cc4c32)c1`, in data set [1], the CC50 is 10 µM. Moreover, the selectivity ratio in data set [2] is 25000. The same compound displayed an EC50 in data set [3] of 0.0004 µM.

With `COc1cccc(CN2C[C@@H](C)NC(=O)c3sc4ccc(OC)cc4c32)c1`, the CC50 in data set [1] was 3.4 µM. Besides, in data set [2], the selectivity ratio amounted to 170. In data set [3], this compound displayed an EC50 of 0.03 µM.

For the compound `C=CCN1CCNC(=O)c2sc3ccc(OC)cc3c21`, in data set [1], the CC50 was found to be 1.75 µM. Further, in data set [2], the selectivity ratio amounted to 1750. In addition, the EC50 in data set [3] was found to be 0.001 µM.

Consider `COc1ccc2sc3c(c2c1)NC[C@@H](C)NC3=O`, for which the CC50 in data set [1] worked out at 1 µM. For the same compound, the selectivity ratio in data set [2] came out at 50. The same compound gave an EC50 in data set [3] of 0.02 µM.

In the case of `COc1ccc2sc3c(c2c1)SCCNC3=O`, the CC50 in data set [1] came to 7.6 µM. Besides, the selectivity ratio in data set [2] turned out to be 60. The EC50 in data set [3] is 0.125 µM.

With `COc1ccc2sc3c(c2c1)OCCNC3=O`, in data set [1], the CC50 is 13.1 µM. Also, the selectivity ratio in data set [2] is 60. This compound also showed a half-maximal effective concentration (EC50) in data set [3] of 0.21 µM.

Regarding `COc1ccc2sc3c(c2c1)NC[C@H](C(C)C)NC3=O`, the CC50 in data set [1] was 4 µM. Also, the selectivity ratio in data set [2] amounted to 67. Besides, in data set [3], the EC50 was found to be 0.06 µM.

Turning to `COc1ccc2sc3c(c2c1)NC[C@@H](CC(C)C)NC3=O`, the CC50 in data set [1] turned out to be 7 µM. In addition, in data set [2], the selectivity ratio came out at 18. Further, in data set [3], the EC50 was 0.39 µM.

With `COc1ccc2sc3c(c2c1)N[C@@H](C)CNC3=O`, the CC50 in data set [1] was found to be 2 µM. Also, the selectivity ratio in data set [2] was determined as 40. Moreover, a half-maximal effect in data set [3] (EC50) was put at 0.05 µM.

With `COc1cccc(CN2C[C@@H](Cc3ccccc3)NC(=O)c3sc4ccc(OC)cc4c32)c1`, in data set [1], the CC50 was 4 µM. Also, the selectivity ratio in data set [2] stood at 9. For the same compound, the EC50 in data set [3] worked out at 0.45 µM.

On to `COc1ccc2sc3c(c2c1)N(Cc1ccc(Cl)cc1)CCNC3=O`, for which, in data set [1], the CC50 turned out to be 12 µM. Also, in data set [2], the selectivity ratio was determined as 300. The compound also came in with an EC50 in data set [3] of 0.04 µM.

For `COc1ccc2sc3c(c2c1)NC[C@@H](Cc1ccccc1)NC3=O`, the CC50 in data set [1] turned out to be 10 µM. In data set [2], the selectivity ratio was 29. Besides, in data set [3], the response was half-maximal at 0.34 µM (EC50).

For the compound `COc1ccc(CN2CCNC(=O)c3sc4ccc(OC)cc4c32)cc1`, the CC50 in data set [1] stood at 10 µM. In data set [2], the selectivity ratio is 830. The compound also gave an EC50 in data set [3] of 0.012 µM.

On to `COc1ccc2sc3c(c2c1)N(Cc1ccc(C)cc1)CCNC3=O`, for which the CC50 in data set [1] worked out at 11 µM. In addition, the selectivity ratio in data set [2] was 360. Also, in data set [3], the half-maximal effective concentration (EC50) worked out at 0.03 µM.

For the compound `COc1ccc2sc3c(c2c1)N(Cc1cccc(C)c1)CCNC3=O`, in data set [1], the CC50 came out at 12 µM. For the same compound, in data set [2], the selectivity ratio stood at 2400. This compound also gave an EC50 in data set [3] of 0.005 µM.

For `COc1ccc2sc3c(c2c1)NC[C@H](C)NC3=O`, the CC50 in data set [1] was found to be 6 µM. Besides, the selectivity ratio in data set [2] turned out to be 35. In data set [3], this compound came in with an EC50 of 0.17 µM.

Take `COc1ccc2sc3c(c2c1)[S+]([O-])CCNC3=O` (centres undefined): the CC50 in data set [1] stood at 25.8 µM. In data set [2], the selectivity ratio stood at 10. In data set [3], this compound displayed a concentration giving a half-maximal response (EC50) of 2.55 µM.

For the compound `COc1ccc2sc3c(c2c1)N[C@H](C)CNC3=O`, the CC50 in data set [1] was found to be 7 µM. For the same compound, in data set [2], the selectivity ratio stood at 54. The EC50 in data set [3] came to 0.13 µM.

`COc1ccc2sc3c(c2c1)N(Cc1ccc([N+](=O)[O-])cc1)CCNC3=O`: the CC50 in data set [1] turned out to be 25 µM. In addition, in data set [2], the selectivity ratio came out at 500. In addition, a half-maximal effect in data set [3] (EC50) was put at 0.05 µM.

For `COc1ccc2sc3c(c2c1)N(Cc1ccccc1)CCNC3=O`, the CC50 in data set [1] amounted to 8 µM. Also, the selectivity ratio in data set [2] was determined as 1600. Besides, the response in data set [3] was half-maximal at 0.005 µM (EC50).

As to `COc1ccc2sc3c(c2c1)NC[C@H](CC(C)C)NC3=O`, the CC50 in data set [1] was determined as 2 µM. Moreover, in data set [2], the selectivity ratio worked out at 100. The compound further yielded a concentration giving a half-maximal response (EC50) in data set [3] of 0.02 µM.

For `COc1ccc2sc3c(c2c1)N[C@@H](Cc1ccccc1)CNC3=O`, in data set [1], the CC50 was 1.1 µM. In addition, in data set [2], the selectivity ratio stood at 110. The same compound displayed a half-maximal effective concentration (EC50) in data set [3] of 0.01 µM.

Take `COc1ccc2sc3c(c2c1)N(C)CCNC3=O`: the CC50 in data set [1] was 12.5 µM. In data set [2], the selectivity ratio was 28. In data set [3], the EC50 is 0.44 µM.

In the case of `COc1ccc2sc3c(c2c1)N[C@H](Cc1ccccc1)CNC3=O`, the CC50 in data set [1] worked out at 1.4 µM. In data set [2], the selectivity ratio stood at 16. The compound also returned an EC50 in data set [3] of 0.09 µM.

With `COc1ccc2sc3c(c2c1)NCCNC3=O`, the CC50 in data set [1] worked out at 4.5 µM. Besides, in data set [2], the selectivity ratio came to 35. For the same compound, in data set [3], the EC50 came out at 0.13 µM.

`COc1ccc2sc3c(c2c1)N(Cc1cccc(Cl)c1)CCNC3=O`: the CC50 in data set [1] was 20 µM. In addition, in data set [2], the selectivity ratio is 4000. Also, the EC50 in data set [3] is 0.005 µM.

As for `COc1ccc2sc3c(c2c1)NC[C@@H](C(C)C)NC3=O`, the CC50 in data set [1] was 3.3 µM. For the same compound, the selectivity ratio in data set [2] came to 37. Also, a half-maximal effect in data set [3] (EC50) was put at 0.09 µM.

With `COc1cccc(CN2C[C@H](C)NC(=O)c3sc4ccc(OC)cc4c32)c1`, in data set [1], the CC50 came to 11 µM. Further, the selectivity ratio in data set [2] came out at 550. The half-maximal effective concentration (EC50) in data set [3] worked out at 0.02 µM.

Take `COc1ccc2sc3c(c2c1)N(Cc1cccc([N+](=O)[O-])c1)CCNC3=O`: in data set [1], the CC50 was 25 µM. Besides, the selectivity ratio in data set [2] is 6250. For the same compound, the midpoint of the response in data set [3], the EC50, lay at 0.004 µM.

For `COc1ccc2sc3c(c2c1)NC[C@H](Cc1ccccc1)NC3=O`, the CC50 in data set [1] was determined as 1.9 µM. Moreover, in data set [2], the selectivity ratio stood at 7. For the same compound, the midpoint of the response in data set [3], the EC50, lay at 0.28 µM.

(Values after ChEMBL document CHEMBL1136037, “Novel benzthiodiazepinones as antiherpetic agents: SAR improvement of therapeutic index by alterations of the seven-membered ring” (Bioorg Med Chem Lett, 2002).)
